Assay results reported in US20250186405A1, “Compound For Use In Treating Narcolepsy” (Alkermes, Inc., priority 2023, published 2025).

Test system: healthy adult subjects
Assay: Part 1 SAD: treatment-emergent adverse events after single oral dose (N = 6 per dose)
Experimental: Part 1 of the study is a SAD evaluation in healthy subjects consisting of 6 cohorts: Cohorts 1-6 received powder-in-capsule or matching placebo. There were approximately 8 subjects per cohort. Dose levels were as follows:
No food was given for at least 4 hours after dose administration. Water was allowed ad libitum except for the time 1 hour before and 1 hour after study drug administration. Safety assessments including AEs, safety ECGs, vital signs, and clinical laboratory tests were conducted, and plasma PK samples were collected.
Adverse events (AEs) and serious adverse events (SAEs) were monitored continuously until the completion of the study.

CS(=O)(=O)N[C@H]1CCCN2C(=O)COc3ccccc3C3CCC(CC3)OCC12 (stereo partly drawn) [Compound A, N-[(4S,4aR,7α,10α)-1,2,3,4,4a,5,7,8,9,10,16,17-dodecahydro-17-oxo-7,10-ethanopyrido[1,2-d][1,7,4]benzodioxaazacyclotridecin-4-yl]methanesulfonamide]
AE Leading to Study Drug Discontinuation (1 mg): 0 n | Any SAEs (1 mg): 0 n | Any TEAE (1 mg): 4 n | Death (1 mg): 0 n | TEAE Anxiety (1 mg): 0 n | TEAE Aspartate aminotransferase increased (1 mg): 0 n | TEAE Back pain (1 mg): 0 n | TEAE Blood pressure increased (1 mg): 0 n | TEAE Dermatitis contact (1 mg): 1 n | TEAE Dizziness (1 mg): 0 n | TEAE Fatigue (1 mg): 0 n | TEAE Headache (1 mg): 0 n | TEAE Hot flush (1 mg): 0 n | TEAE Hypervigilance (1 mg): 0 n | TEAE Insomnia (1 mg): 0 n | TEAE Metamorphopsia (1 mg): 0 n | TEAE Nausea (1 mg): 0 n | TEAE Oropharyngeal pain (1 mg): 0 n | TEAE Pharyngitis (1 mg): 1 n | TEAE Pollakiuria (1 mg): 0 n | TEAE Skin hyperpigmentation (1 mg): 1 n | TEAE Upper respiratory tract infection (1 mg): 0 n | TEAE Urinary incontinence (1 mg): 0 n | TEAE Vision blurred (1 mg): 0 n | TEAE by Highest Relationship: Not Related (1 mg): 4 n | TEAE by Highest Relationship: Related (1 mg): 0 n | TEAE by Highest Severity: Mild (1 mg): 1 n | TEAE by Highest Severity: Moderate (1 mg): 3 n | TEAE by Highest Severity: Severe (1 mg): 0 n | AE Leading to Study Drug Discontinuation (3 mg): 0 n | Any SAEs (3 mg): 0 n | Any TEAE (3 mg): 0 n | Death (3 mg): 0 n | TEAE Anxiety (3 mg): 0 n | TEAE Aspartate aminotransferase increased (3 mg): 0 n | TEAE Back pain (3 mg): 0 n | TEAE Blood pressure increased (3 mg): 0 n | TEAE Dermatitis contact (3 mg): 0 n | TEAE Dizziness (3 mg): 0 n | TEAE Fatigue (3 mg): 0 n | TEAE Headache (3 mg): 0 n | TEAE Hot flush (3 mg): 0 n | TEAE Hypervigilance (3 mg): 0 n | TEAE Insomnia (3 mg): 0 n | TEAE Metamorphopsia (3 mg): 0 n | TEAE Nausea (3 mg): 0 n | TEAE Oropharyngeal pain (3 mg): 0 n | TEAE Pharyngitis (3 mg): 0 n | TEAE Pollakiuria (3 mg): 0 n | TEAE Skin hyperpigmentation (3 mg): 0 n | TEAE Upper respiratory tract infection (3 mg): 0 n | TEAE Urinary incontinence (3 mg): 0 n | TEAE Vision blurred (3 mg): 0 n | TEAE by Highest Relationship: Not Related (3 mg): 0 n | TEAE by Highest Relationship: Related (3 mg): 0 n | TEAE by Highest Severity: Mild (3 mg): 0 n | TEAE by Highest Severity: Moderate (3 mg): 0 n | TEAE by Highest Severity: Severe (3 mg): 0 n | AE Leading to Study Drug Discontinuation (8 mg): 0 n | Any SAEs (8 mg): 0 n | Any TEAE (8 mg): 1 n | Death (8 mg): 0 n | TEAE Anxiety (8 mg): 0 n | TEAE Aspartate aminotransferase increased (8 mg): 0 n | TEAE Back pain (8 mg): 0 n | TEAE Blood pressure increased (8 mg): 0 n | TEAE Dermatitis contact (8 mg): 0 n | TEAE Dizziness (8 mg): 0 n | TEAE Fatigue (8 mg): 0 n | TEAE Headache (8 mg): 0 n | TEAE Hot flush (8 mg): 0 n | TEAE Hypervigilance (8 mg): 0 n | TEAE Insomnia (8 mg): 0 n | TEAE Metamorphopsia (8 mg): 0 n | TEAE Nausea (8 mg): 0 n | TEAE Oropharyngeal pain (8 mg): 0 n | TEAE Pharyngitis (8 mg): 0 n | TEAE Pollakiuria (8 mg): 0 n | TEAE Skin hyperpigmentation (8 mg): 0 n | TEAE Upper respiratory tract infection (8 mg): 1 n | TEAE Urinary incontinence (8 mg): 0 n | TEAE Vision blurred (8 mg): 0 n | TEAE by Highest Relationship: Not Related (8 mg): 1 n | TEAE by Highest Relationship: Related (8 mg): 0 n | TEAE by Highest Severity: Mild (8 mg): 1 n | TEAE by Highest Severity: Moderate (8 mg): 0 n | TEAE by Highest Severity: Severe (8 mg): 0 n | AE Leading to Study Drug Discontinuation (15 mg): 0 n | Any SAEs (15 mg): 0 n | Any TEAE (15 mg): 4 n | Death (15 mg): 0 n | TEAE Anxiety (15 mg): 1 n | TEAE Aspartate aminotransferase increased (15 mg): 0 n | TEAE Back pain (15 mg): 0 n | TEAE Blood pressure increased (15 mg): 0 n | TEAE Dermatitis contact (15 mg): 0 n | TEAE Dizziness (15 mg): 2 n | TEAE Fatigue (15 mg): 0 n | TEAE Headache (15 mg): 0 n | TEAE Hot flush (15 mg): 1 n | TEAE Hypervigilance (15 mg): 1 n | TEAE Insomnia (15 mg): 1 n | TEAE Metamorphopsia (15 mg): 1 n | TEAE Nausea (15 mg): 0 n | TEAE Oropharyngeal pain (15 mg): 0 n | TEAE Pharyngitis (15 mg): 0 n | TEAE Pollakiuria (15 mg): 1 n | TEAE Skin hyperpigmentation (15 mg): 0 n | TEAE Upper respiratory tract infection (15 mg): 0 n | TEAE Urinary incontinence (15 mg): 0 n | TEAE Vision blurred (15 mg): 1 n | TEAE by Highest Relationship: Not Related (15 mg): 0 n | TEAE by Highest Relationship: Related (15 mg): 4 n | TEAE by Highest Severity: Mild (15 mg): 4 n | TEAE by Highest Severity: Moderate (15 mg): 0 n | TEAE by Highest Severity: Severe (15 mg): 0 n | AE Leading to Study Drug Discontinuation (25 mg): 0 n | Any SAEs (25 mg): 0 n | Any TEAE (25 mg): 4 n | Death (25 mg): 0 n | TEAE Anxiety (25 mg): 0 n | TEAE Aspartate aminotransferase increased (25 mg): 0 n | TEAE Back pain (25 mg): 0 n | TEAE Blood pressure increased (25 mg): 0 n | TEAE Dermatitis contact (25 mg): 0 n | TEAE Dizziness (25 mg): 4 n | TEAE Fatigue (25 mg): 1 n | TEAE Headache (25 mg): 0 n | TEAE Hot flush (25 mg): 0 n | TEAE Hypervigilance (25 mg): 0 n | TEAE Insomnia (25 mg): 0 n | TEAE Metamorphopsia (25 mg): 0 n | TEAE Nausea (25 mg): 0 n | TEAE Oropharyngeal pain (25 mg): 1 n | TEAE Pharyngitis (25 mg): 0 n | TEAE Pollakiuria (25 mg): 1 n | TEAE Skin hyperpigmentation (25 mg): 0 n | TEAE Upper respiratory tract infection (25 mg): 0 n | TEAE Urinary incontinence (25 mg): 0 n | TEAE Vision blurred (25 mg): 0 n | TEAE by Highest Relationship: Not Related (25 mg): 0 n | TEAE by Highest Relationship: Related (25 mg): 4 n | TEAE by Highest Severity: Mild (25 mg): 4 n | TEAE by Highest Severity: Moderate (25 mg): 0 n | TEAE by Highest Severity: Severe (25 mg): 0 n | AE Leading to Study Drug Discontinuation (50 mg): 0 n | Any SAEs (50 mg): 0 n | Any TEAE (50 mg): 2 n | Death (50 mg): 0 n | TEAE Anxiety (50 mg): 0 n | TEAE Aspartate aminotransferase increased (50 mg): 1 n | TEAE Back pain (50 mg): 0 n | TEAE Blood pressure increased (50 mg): 1 n | TEAE Dermatitis contact (50 mg): 0 n | TEAE Dizziness (50 mg): 2 n | TEAE Fatigue (50 mg): 0 n | TEAE Headache (50 mg): 1 n | TEAE Hot flush (50 mg): 0 n | TEAE Hypervigilance (50 mg): 0 n | TEAE Insomnia (50 mg): 0 n | TEAE Metamorphopsia (50 mg): 0 n | TEAE Nausea (50 mg): 2 n | TEAE Oropharyngeal pain (50 mg): 0 n | TEAE Pharyngitis (50 mg): 0 n | TEAE Pollakiuria (50 mg): 2 n | TEAE Skin hyperpigmentation (50 mg): 0 n | TEAE Upper respiratory tract infection (50 mg): 0 n | TEAE Urinary incontinence (50 mg): 1 n | TEAE Vision blurred (50 mg): 1 n | TEAE by Highest Relationship: Not Related (50 mg): 0 n | TEAE by Highest Relationship: Related (50 mg): 2 n | TEAE by Highest Severity: Mild (50 mg): 1 n | TEAE by Highest Severity: Moderate (50 mg): 1 n | TEAE by Highest Severity: Severe (50 mg): 0 n | AE Leading to Study Drug Discontinuation (Total (N = 36)): 0 n | Any SAEs (Total (N = 36)): 0 n | Any TEAE (Total (N = 36)): 15 n | Death (Total (N = 36)): 0 n | TEAE Anxiety (Total (N = 36)): 1 n | TEAE Aspartate aminotransferase increased (Total (N = 36)): 1 n | TEAE Back pain (Total (N = 36)): 0 n | TEAE Blood pressure increased (Total (N = 36)): 1 n | TEAE Dermatitis contact (Total (N = 36)): 1 n | TEAE Dizziness (Total (N = 36)): 8 n | TEAE Fatigue (Total (N = 36)): 1 n | TEAE Headache (Total (N = 36)): 1 n | TEAE Hot flush (Total (N = 36)): 1 n | TEAE Hypervigilance (Total (N = 36)): 1 n | TEAE Insomnia (Total (N = 36)): 1 n | TEAE Metamorphopsia (Total (N = 36)): 1 n | TEAE Nausea (Total (N = 36)): 2 n | TEAE Oropharyngeal pain (Total (N = 36)): 1 n | TEAE Pharyngitis (Total (N = 36)): 1 n | TEAE Pollakiuria (Total (N = 36)): 4 n | TEAE Skin hyperpigmentation (Total (N = 36)): 1 n | TEAE Upper respiratory tract infection (Total (N = 36)): 1 n | TEAE Urinary incontinence (Total (N = 36)): 1 n | TEAE Vision blurred (Total (N = 36)): 2 n | TEAE by Highest Relationship: Not Related (Total (N = 36)): 5 n | TEAE by Highest Relationship: Related (Total (N = 36)): 10 n | TEAE by Highest Severity: Mild (Total (N = 36)): 11 n | TEAE by Highest Severity: Moderate (Total (N = 36)): 4 n | TEAE by Highest Severity: Severe (Total (N = 36)): 0 n | Tolerability (single doses 1 to 50 mg): well tolerated
